Assay results from PubChem BioAssay AID2060490 (Molecular Pharmacology Branch, DTP, NCI, 2025).

Test system: 885512-296-R-J2-PDC complex spheroid viability
Test: Anticancer human tumor 885512-296-R-J2-PDC patient-derived breast carcinoma cell line growth inhibition [GQUAD]
Details: for IC50: curve of first compound; for viability, T/C: stronger effect = lower value
Summary of the method: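 Viability of tumor cells grown as complex spheroids with endothelial and stromal cells, exposed to drug combinations. Top concentration at or near clinical Cmax (else 10 microM), diluted in half-log increments.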

[1] = second compound 0.0316 µM, first compound 0.0316 µM
[2] = second compound 0.0316 µM, first compound 0.316 µM
[3] = second compound 0.1 µM, first compound 0.0316 µM
[4] = second compound 0.1 µM, first compound 0.316 µM
[5] = second compound 0.316 µM, first compound 0.0316 µM
[6] = second compound 0.316 µM, first compound 0.316 µM
[7] = second compound 1 µM, first compound 0.0316 µM
[8] = second compound 1 µM, first compound 0.316 µM
[9] = second compound 3.16 µM, first compound 0.0316 µM
[10] = second compound 3.16 µM, first compound 0.316 µM
[11] = second compound 10 µM, first compound 0.0316 µM
[12] = second compound 10 µM, first compound 0.316 µM
[13] = second compound 0.0316 µM, first compound 0.000999 µM
[14] = second compound 0.0316 µM, first compound 0.00316 µM
[15] = second compound 0.0316 µM, first compound 0.00999 µM
[16] = second compound 0.0316 µM, first compound 0.0999 µM
[17] = second compound 0.1 µM, first compound 0.000999 µM
[18] = second compound 0.1 µM, first compound 0.00316 µM
[19] = second compound 0.1 µM, first compound 0.00999 µM
[20] = second compound 0.1 µM, first compound 0.0999 µM
[21] = second compound 0.316 µM, first compound 0.000999 µM
[22] = second compound 0.316 µM, first compound 0.00316 µM
[23] = second compound 0.316 µM, first compound 0.00999 µM
[24] = second compound 0.316 µM, first compound 0.0999 µM
[25] = second compound 1 µM, first compound 0.000999 µM
[26] = second compound 1 µM, first compound 0.00316 µM
[27] = second compound 1 µM, first compound 0.00999 µM
[28] = second compound 1 µM, first compound 0.0999 µM
[29] = second compound 3.16 µM, first compound 0.000999 µM
[30] = second compound 3.16 µM, first compound 0.00316 µM
[31] = second compound 3.16 µM, first compound 0.00999 µM
[32] = second compound 3.16 µM, first compound 0.0999 µM
[33] = second compound 10 µM, first compound 0.000999 µM
[34] = second compound 10 µM, first compound 0.00316 µM
[35] = second compound 10 µM, first compound 0.00999 µM
[36] = second compound 10 µM, first compound 0.0999 µM
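Note: spheroids exposed to the compounds for one week.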
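Throughout, for viability, T/C: percent of tumor spheroid viability relative to DMSO vehicle control wells.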

For `CC(C)n1c(=O)n(C)c2cnc3cc(F)c(-c4ccc(OCCCN5CCCCC5)nc4)cc3c21` + Cc1cnc(CNC(=O)c2c(=O)c3ccc(N4CCCN(C)CC4)nc3n3c2sc2ccccc23)cn1, the IC50 (second compound 0.0316 µM) was < 31.6 nM, the IC50 (second compound 0.1 µM) was < 31.6 nM and the IC50 (second compound 0.316 µM) was < 31.6 nM. For the same compound, the IC50 (second compound 1 µM) was < 31.6 nM, the IC50 (second compound 3.16 µM) was < 31.6 nM and the IC50 (second compound 10 µM) was < 31.6 nM. The viability, T/C [1] was 28.4%, the viability, T/C (second compound 0.0316 µM, first compound 0.1 µM) was 20.2% and the viability, T/C [2] was 26.6%. For the same compound, the viability, T/C (second compound 0.0316 µM, first compound 1 µM) was 39.4%, the viability, T/C (second compound 0.0316 µM, first compound 3.16 µM) was 46.5% and the viability, T/C (second compound 0.0316 µM, first compound 10 µM) was 49.1%. It also gave a viability, T/C [3] of 15%, a viability, T/C (second compound 0.1 µM, first compound 0.1 µM) of 16.6% and a viability, T/C [4] of 24%. It also gave a viability, T/C (second compound 0.1 µM, first compound 1 µM) of 18.1%, a viability, T/C (second compound 0.1 µM, first compound 3.16 µM) of 31.6% and a viability, T/C (second compound 0.1 µM, first compound 10 µM) of 30.8%. It also gave a viability, T/C [5] of 13.3%, a viability, T/C (second compound 0.316 µM, first compound 0.1 µM) of 13.1% and a viability, T/C [6] of 12.6%. It also gave a viability, T/C (second compound 0.316 µM, first compound 1 µM) of 16.9%, a viability, T/C (second compound 0.316 µM, first compound 3.16 µM) of 14.6% and a viability, T/C (second compound 0.316 µM, first compound 10 µM) of 19.5%. For the same compound, the viability, T/C [7] was 18.1%, the viability, T/C (second compound 1 µM, first compound 0.1 µM) was 16.6% and the viability, T/C [8] was 16.4%. It also gave a viability, T/C (second compound 1 µM, first compound 1 µM) of 18%, a viability, T/C (second compound 1 µM, first compound 3.16 µM) of 23.2% and a viability, T/C (second compound 1 µM, first compound 10 µM) of 12.4%. It also gave a viability, T/C [9] of 21.9%, a viability, T/C (second compound 3.16 µM, first compound 0.1 µM) of 23.4% and a viability, T/C [10] of 21.7%. It also gave a viability, T/C (second compound 3.16 µM, first compound 1 µM) of 21.8%, a viability, T/C (second compound 3.16 µM, first compound 3.16 µM) of 24.8% and a viability, T/C (second compound 3.16 µM, first compound 10 µM) of 9.39%. It also gave a viability, T/C [11] of 0.15%, a viability, T/C (second compound 10 µM, first compound 0.1 µM) of 0.19% and a viability, T/C [12] of 0.2%. For the same compound, the viability, T/C (second compound 10 µM, first compound 1 µM) was 0.17%, the viability, T/C (second compound 10 µM, first compound 3.16 µM) was 0.16% and the viability, T/C (second compound 10 µM, first compound 10 µM) was 0.16%.

In the case of `CCc1c2c(nc3ccc(O)cc13)-c1cc3c(c(=O)n1C2)COC(=O)[C@]3(O)CC` + CN(C)c1ccc(Nc2c3ccc(NC(=O)CCN4CCCC4)cc3nc3cc(NC(=O)CCN4CCCC4)ccc23)cc1, the IC50 (second compound 0.0316 µM) is reported as < 0.999 nM, the IC50 (second compound 0.1 µM) is reported as < 0.999 nM and the IC50 (second compound 0.316 µM) is reported as < 0.999 nM. The IC50 (second compound 1 µM) was < 0.999 nM, the IC50 (second compound 3.16 µM) was < 0.999 nM and the IC50 (second compound 10 µM) was < 0.999 nM. For the same compound, the viability, T/C [13] was 18.3%, the viability, T/C [14] was 6.69% and the viability, T/C [15] was 3.15%. For the same compound, the viability, T/C [1] was 1.94%, the viability, T/C [16] was 1.66% and the viability, T/C [2] was 1.39%. The viability, T/C [17] was 15.7%, the viability, T/C [18] was 7.02% and the viability, T/C [19] was 3.83%. The viability, T/C [3] was 2.59%, the viability, T/C [20] was 1.42% and the viability, T/C [4] was 1.57%. The viability, T/C [21] was 13.1%, the viability, T/C [22] was 7.17% and the viability, T/C [23] was 3.49%. The viability, T/C [5] was 2.63%, the viability, T/C [24] was 1.58% and the viability, T/C [6] was 1.1%. For the same compound, the viability, T/C [25] was 19.3%, the viability, T/C [26] was 6.88% and the viability, T/C [27] was 3.62%. For the same compound, the viability, T/C [7] was 2.24%, the viability, T/C [28] was 1.82% and the viability, T/C [8] was 1.23%. For the same compound, the viability, T/C [29] was 18.7%, the viability, T/C [30] was 11.3% and the viability, T/C [31] was 4.83%. It also gave a viability, T/C [9] of 2.33%, a viability, T/C [32] of 1.61% and a viability, T/C [10] of 1.26%. The viability, T/C [33] was 12.8%, the viability, T/C [34] was 10.4% and the viability, T/C [35] was 6.78%. The viability, T/C [11] was 3.28%, the viability, T/C [36] was 1.43% and the viability, T/C [12] was 0.56%.

`Cc1[nH]c2ccccc2c1CCNCc1ccc(/C=C/C(=O)NO)cc1` + CN(C)c1ccc(Nc2c3ccc(NC(=O)CCN4CCCC4)cc3nc3cc(NC(=O)CCN4CCCC4)ccc23)cc1 gave an IC50 (second compound 0.0316 µM) of 26.3 nM, an IC50 (second compound 0.1 µM) of 24.8 nM and an IC50 (second compound 0.316 µM) of 20.3 nM. The IC50 (second compound 1 µM) was 30.8 nM, the IC50 (second compound 3.16 µM) was 8.45 nM and the IC50 (second compound 10 µM) was < 0.999 nM. It also gave a viability, T/C [13] of 96.5%, a viability, T/C [14] of 84.1% and a viability, T/C [15] of 70.8%. For the same compound, the viability, T/C [1] was 40.1%, the viability, T/C [16] was 30.1% and the viability, T/C [2] was 3.59%. The viability, T/C [17] was 95.6%, the viability, T/C [18] was 91.7% and the viability, T/C [19] was 64.8%. It also gave a viability, T/C [3] of 44.1%, a viability, T/C [20] of 25.3% and a viability, T/C [4] of 4.19%. For the same compound, the viability, T/C [21] was 103%, the viability, T/C [22] was 93.2% and the viability, T/C [23] was 63%. For the same compound, the viability, T/C [5] was 35.9%, the viability, T/C [24] was 28.6% and the viability, T/C [6] was 4.61%. For the same compound, the viability, T/C [25] was 85.7%, the viability, T/C [26] was 94.4% and the viability, T/C [27] was 63.7%. For the same compound, the viability, T/C [7] was 48%, the viability, T/C [28] was 29.5% and the viability, T/C [8] was 4.03%. It also gave a viability, T/C [29] of 80%, a viability, T/C [30] of 64.7% and a viability, T/C [31] of 46.5%. It also gave a viability, T/C [9] of 30.1%, a viability, T/C [32] of 24.6% and a viability, T/C [10] of 5.49%. It also gave a viability, T/C [33] of 18.2%, a viability, T/C [34] of 17.7% and a viability, T/C [35] of 11.3%. For the same compound, the viability, T/C [11] was 10.3%, the viability, T/C [36] was 13% and the viability, T/C [12] was 2.87%.
